From patent US12611406B2, “Oxopiperazine derivatives for the treatment of cancer” (Inthera Bioscience AG, priority 2020, dated 2026)
“Also recorded” adds a separate entry of the source.

How the values were obtained:
[1] = 5-day daily intravenous repeated-dose TK study in CD-1 mice (mesylate salt); type: in vivo; conditions: for half-life: both sexes, CD-1, mouse, blood, intravenous
Procedure: The aim of the present study was to explore the TK of Compound 1 after 5 days of once daily intravenous dosing in male and female CD-1 mice, with a subsequent recovery phase of 9 days.
Compound 1 (mesylate salt) was administered once daily for 5 consecutive days by intravenous injection to groups of CD-1 mice (n=8/sex/group) at dose levels of 0 (control), 0.5, 2, 6, or 12 mg/kg/day. A suspension of 0.5% methylcellulose (w/v) in sterile water was used as vehicle. Blood samples were collected for hematology, clinical chemistry (Day 6 and 15), and pharmacokinetics evaluation.

AR = test: AR-driven gene expression in LNCaP cells stimulated with DHT; type: cell-based; conditions: PSA (KLK3), TMPRSS2, SLC45A3; DHT induction; 30, 300, 3000 nM
Procedure: Compound 1 concentrations from left to right: 30, 300, 3000 nM. Basal level indicates expression level in cells with no DHT treatment.
In SCLC, the expression of p300 and CBP is associated with poor prognosis (see Gao et al, Int J Clin Exp Pathol. 2014 Jan. 15; 7(2):760-7) with high p300 and CBP expressions being independent prognostic markers of poor overall survival (OS) for resected SCLC patients.

SNU-5 = SNU-5 gastric cancer CDX mouse model; type: in vivo; conditions: for Tumor growth inhibition: p <0.001
Procedure: Left panel: Tumor growth curves. Right panel: Body weight development. […] QD: once daily treatment; po: per os.
Left panel: Tumor growth curves. Right panel: Body weight development. […] QW: once weekly treatment. p.o.: per oral.
Compound 1 (3 mg/kg) was administered orally to the gastric cancer CDX model of SNU-5 cells (FIG. 8C), which harbor a loss-of-function of p53 and mutations in the CDKN2A gene loci, the latter controlling the Rb and p53 pathways.
Values larger than 100% indicate tumor regression.

[2] = system: human enzymes, transporters, kinases, receptors and ion channels; test: In vitro safety pharmacology panels
Procedure: Compound 1 was tested using in vitro safety pharmacology panels encompassing human enzymes, transporters, kinases, receptors and ion channels thought to be potential contributors to adverse drug reactions.

[3] = 14-day daily oral repeated-dose DRF study in cynomolgus monkeys (mesylate salt); type: in vivo; conditions: for half-life / AUC(0-t) / Cmax / Tmax: cynomolgus monkey, plasma
Procedure: The objective of this exploratory study was to assess the TK profile of Compound 1 when repeatedly administered via the oral route to cynomolgus monkeys.
Compound 1 (mesylate salt) administration in this dose-range-finder study was intended once daily for up to 14 consecutive days by oral gavage to groups of naïve cynomolgus monkeys (n=1/sex/group) at dose levels of 0.5, 4, 8, or 12 mg Compound 1 per kg bodyweight and day, using a staggered approach. The vehicle was 0.5% Methylcellulose in water. The actual dose levels and durations of dosing were flexibly adapted according to signs of tolerability and PK: Group 1 animals were dosed at 0.5 mg/kg/day for 10 days and after a 4-day washout phase for additional 12 days at 4 mg/kg/days; Group 2 animals at 12 mg/kg/day for 11 days; Group 3 animals at 8 mg/kg for 10 (males) or 9 (females) days; and Group 4 animals at 8 mg/kg for 5 days, respectively, as summarized in Table 10.
The animals in the final group 4 were dosed orally once daily or 5 days with 8 mg/kg Compound 1 before a 9-day recovery phase was given.

[4] = both sexes, po, 0.5 mg/kg, 0.5 mg/kg (Gr. 1), Day 1
[5] = both sexes, po, 8 mg/kg, 8 mg/kg (Gr. 3), Day 1
[6] = both sexes, po, 8 mg/kg, 8 mg/kg (Gr. 3), Day 5
[7] = both sexes, po, 8 mg/kg, 8 mg/kg (Gr. 4), Day 1
[8] = both sexes, po, 8 mg/kg, 8 mg/kg (Gr. 4), Day 5
[9] = both sexes, po, 12 mg/kg, 12 mg/kg (Gr. 2), Day 1
[10] = both sexes, po, 12 mg/kg, 12 mg/kg (Gr. 2), Day 7
[11] = po, 0.5 mg/kg, 0.5 mg/kg (Gr. 1), Day 7
[12] = po, 4 mg/kg, 4 mg/kg (Gr. 1), Day 1
[13] = po, 4 mg/kg, 4 mg/kg (Gr. 1), Day 5
[14] = po, 4 mg/kg, 4 mg/kg (Gr. 1), Day 11

For `CC(C)C[C@@H]1NCCN([C@@H](CC(C)C)C(=O)N2CCC3(C[C@@H]2C)OCC(CN2CCCC2)CO3)C1=O` (stereo partly drawn) [Compound 1, (S)-3-isobutyl-1-((S)-4-methyl-1-((S)-8-methyl-3-(pyrrolidin-1-ylmethyl)-1,5-dioxa-9-azaspiro[5.5]undecan-9-yl)-1-oxopentan-2-yl)piperazin-2-one], which “group mean initial blood concentration (CO)” value ([1]; 0.5 mg/kg/day, Day 1) is on record?
Its value is 111 ng/mL.

What about the CO ([1]; 0.5 mg/kg/day, Day 5, female) of the same compound?
The CO was 112 ng/mL.

And the CO ([1]; 0.5 mg/kg/day, Day 5, male)?
Its CO is 191 ng/mL.

What about the “group mean initial blood concentration (CO)” value ([1]; 2 mg/kg/day, Day 1) of the same compound?
The value was 386 ng/mL.

And the CO ([1]; 2 mg/kg/day, Day 5, female)?
Its CO is 391 ng/mL.

What about the CO ([1]; 2 mg/kg/day, Day 5, male) of the same compound?
The CO was 275 ng/mL.

And the “group mean initial blood concentration (CO)” value ([1]; 6 mg/kg/day, Day 1)?
Its value is 1257 ng/mL.

What about the CO ([1]; 6 mg/kg/day, Day 5, female) of the same compound?
The CO was 641 ng/mL.

What about the CO ([1]; 6 mg/kg/day, Day 5, male) of the same compound?
Its CO is 778 ng/mL.

And the “group mean initial blood concentration (CO)” value ([1]; 12 mg/kg/day, Day 1)?
The value was 1725 ng/mL.

What about the CO ([1]; 12 mg/kg/day, Day 5, female) of the same compound?
The CO was 1548 ng/mL.

And the CO ([1]; 12 mg/kg/day, Day 5, male)?
Its CO is 1531 ng/mL.

What about the tolerability ([1]; 0.5, 2, 6, and 12 mg/kg/day intravenously once daily for 5 consecutive days) of the same compound?
Its tolerability is “well tolerated; also recorded: well-tolerated”.

What about the half-life ([1]; all groups, Day 1, read-out: terminal half-life) of the same compound?
Its half-life is 66 to 78 min.

What about the half-life ([1]; over the dose interval, Day 5, read-out: elimination half-life) of the same compound?
The half-life was 66 to 114 min.

And the “AR target gene expression” value (AR)?
Its value is “effectively downregulates target genes”.

What about the “anti-tumor efficacy, every other week vs daily” value (SNU-5; 3 mg/kg oral) of the same compound?
The value was “comparable anti-tumor efficacies”.

What about the tumor growth (SNU-5; 30 mg/kg once every seven days for 7 weeks) of the same compound?
Its tumor growth is “almost complete inhibition of tumor growth”.

What about the Tumor growth inhibition (SNU-5; once weekly 15 mg/kg/day, 7 weeks) of the same compound?
The Tumor growth inhibition was 62% (<0.001)/.

And the Tumor growth inhibition (SNU-5; once weekly 30 mg/kg/day, 7 weeks)?
Its Tumor growth inhibition is 91% (<0.001)/.

And the Tumor growth inhibition (SNU-5; once weekly 60 mg/kg/day as 30 mg/kg BID, 5 weeks)?
The Tumor growth inhibition was 98% (<0.001)/**5 weeks.

What about the “responses in safety pharmacology panels” value [2] of the same compound?
The value was “No significant responses were detected”.

And the half-life ([3]; both sexes, oral, in general, all groups, read-out: mean terminal plasma elimination half-lives)?
Its half-life is 264 to 504 min.

And the AUC(0-t) [3, 4]?
The AUC(0-t) was 0.7 ng·h/mL.

And the Cmax [3, 4]?
Its Cmax is 0.24 ng/mL.

And the Tmax [3, 4]?
Its Tmax is 1.5 h.

What about the half-life ([3]; both sexes, po, 0.5 mg/kg, 0.5 mg/kg (Gr. 1), Day 1, read-out: T1/2 (converted)) of the same compound?
Its half-life is 294 min.

And the half-life ([3]; both sexes, po, 4 mg/kg, 4 mg/kg (Gr. 1), Day 11, read-out: T1/2 (converted))?
The half-life was 306 min.

What about the AUC(0-t) [3, 5] of the same compound?
Its AUC(0-t) is 64.9 ng·h/mL.

What about the Cmax [3, 5] of the same compound?
The Cmax was 21.7 ng/mL.

And the Tmax [3, 5]?
Its Tmax is 1 h.

What about the half-life ([3]; both sexes, po, 8 mg/kg, 8 mg/kg (Gr. 3), Day 1, read-out: T1/2 (converted)) of the same compound?
Its half-life is 276 min.

What about the AUC(0-t) [3, 6] of the same compound?
Its AUC(0-t) is 92 ng·h/mL.

What about the Cmax [3, 6] of the same compound?
Its Cmax is 18.8 ng/mL.

What about the Tmax [3, 6] of the same compound?
The Tmax was 1 h.

And the half-life ([3]; both sexes, po, 8 mg/kg, 8 mg/kg (Gr. 3), Day 5, read-out: T1/2 (converted))?
Its half-life is 390 min.

What about the AUC(0-t) [3, 7] of the same compound?
The AUC(0-t) was 30.4 ng·h/mL.

And the Cmax [3, 7]?
Its Cmax is 8.95 ng/mL.

What about the Tmax [3, 7] of the same compound?
Its Tmax is 1 h.

What about the half-life ([3]; both sexes, po, 8 mg/kg, 8 mg/kg (Gr. 4), Day 1, read-out: T1/2 (converted)) of the same compound?
Its half-life is 324 min.

What about the AUC(0-t) [3, 8] of the same compound?
Its AUC(0-t) is 51.3 ng·h/mL.

What about the Cmax [3, 8] of the same compound?
The Cmax was 13.8 ng/mL.

What about the Tmax [3, 8] of the same compound?
The Tmax was 1.5 h.

And the half-life ([3]; both sexes, po, 8 mg/kg, 8 mg/kg (Gr. 4), Day 5, read-out: T1/2 (converted))?
Its half-life is 384 min.

And the AUC(0-t) [3, 9]?
Its AUC(0-t) is 86 ng·h/mL.

And the Cmax [3, 9]?
The Cmax was 31.2 ng/mL.

What about the Tmax [3, 9] of the same compound?
Its Tmax is 1 h.

What about the half-life ([3]; both sexes, po, 12 mg/kg, 12 mg/kg (Gr. 2), Day 1, read-out: T1/2 (converted)) of the same compound?
Its half-life is 396 min.

And the AUC(0-t) [3, 10]?
Its AUC(0-t) is 214 ng·h/mL.

What about the Cmax [3, 10] of the same compound?
Its Cmax is 48.8 ng/mL.

And the Tmax [3, 10]?
Its Tmax is 1 h.

And the half-life ([3]; both sexes, po, 12 mg/kg, 12 mg/kg (Gr. 2), Day 7, read-out: T1/2 (converted))?
The half-life was 444 min.

What about the Tmax ([3]; both sexes, po, after oral administration, all groups) of the same compound?
The Tmax was 1 to 1.5 h.

What about the AUC(0-t) [3, 11] of the same compound?
Its AUC(0-t) is 1.2 ng·h/mL.

What about the Cmax [3, 11] of the same compound?
The Cmax was 0.18 ng/mL.

What about the Tmax [3, 11] of the same compound?
The Tmax was 1 h.

And the half-life ([3]; po, 0.5 mg/kg, 0.5 mg/kg (Gr. 1), Day 7, read-out: T1/2 (converted))?
The half-life was 1110 min.

What about the AUC(0-t) [3, 12] of the same compound?
Its AUC(0-t) is 10.5 ng·h/mL.

And the Cmax [3, 12]?
Its Cmax is 2.95 ng/mL.

What about the Tmax [3, 12] of the same compound?
Its Tmax is 1 h.

What about the half-life ([3]; po, 4 mg/kg, 4 mg/kg (Gr. 1), Day 1, read-out: T1/2 (converted)) of the same compound?
Its half-life is 264 min.

What about the AUC(0-t) [3, 13] of the same compound?
The AUC(0-t) was 9.5 ng·h/mL.

And the Cmax [3, 13]?
The Cmax was 2.3 ng/mL.

What about the Tmax [3, 13] of the same compound?
The Tmax was 1 h.

And the half-life ([3]; po, 4 mg/kg, 4 mg/kg (Gr. 1), Day 5, read-out: T1/2 (converted))?
Its half-life is 504 min.

What about the AUC(0-t) [3, 14] of the same compound?
Its AUC(0-t) is 10.9 ng·h/mL.

And the Cmax [3, 14]?
The Cmax was 3.06 ng/mL.

And the Tmax [3, 14]?
Its Tmax is 1 h.

And the tolerability ([3]; daily 0.5 and 4 mg/kg/day for 10 or 12 days)?
The tolerability was “tolerated”.

What about the tolerability ([3]; daily 8 and 12 mg/kg/day for 10 days) of the same compound?
Its tolerability is “not tolerated”.
